Tests used:
[1] = test system: AsPC-1 human pancreatic cancer cell with KRAS G12D mutation; test: Cell proliferation inhibition experiment, 3D CellTiter-Glo, AsPC-1; format: cell-based; conditions: AsPC-1 cells, 3D spheroid, 5 days
Text: (§1) AsPC-1 was purchased from ATCC, Article No.: CRL-1682; AGS was purchased from ATCC, Article No.: CRL-1739; RPMI1640 was purchased from Gibco, Article No.: 11875-093 2235123; F12K was purchased from Gibco, Article No.: 21127-022; FBS was purchased from Gibco, Article No.: 10099-141C; the trypsin (containing EDTA) was purchased from Gibco, Article No.: 25200-072; CellTiter Glo-3D was purchased from Progema, Article No.: G9683; the 384-well spheroid plate was purchased from Corning, Article No.: 3830; the white-bottom opaque 384-well plate was purchased from Corning, Article No.: 3570; the cell counter was purchased from CHEMOMETEC, model: NC-200; the microplate reader was purchased from PerkinElmer, model: Envison;
(§2) AsPC-1, an endogenous human pancreatic cancer cell AsPC-1 with KRAS^G12D mutation, was cultured in RPMI-1640 medium containing 10% FBS. AGS, a human gastric cancer cell line with KRAS^G12D mutation, was cultured in F-12K medium containing 10% FBS. Cells in logarithmic growth period were digested with trypsin (containing EDTA), collected and counted. 800 AsPC-1 cells/well or 400 […] were inoculated in a 384-well spheroid plate, and cultured overnight in an incubator with 5% CO2 to establish a 3D cell model. 1000× compound stock solutions with gradient concentrations of 3.16 times were prepared with DMSO, and 100-fold diluted to 10× compound stock solutions with the culture medium. The 10× compound stock solution was added to each cell culture well on the second day after cell inoculation, to give a final concentration of 1× and DMSO content of 0.1%. DMSO was used as the control, and the culture medium was used as the blank. After the compound was added, the cells were cultured for 5 days. 30 μl CellTiter-Glo working solution was added to each well, and mixed uniformly. The cells were incubated for 30 min, and allowed to stand at room temperature for 30 min. 40 μl of the mixture was transferred to a white-bottom opaque 384-well plate, and the luminescence was read on a microplate reader. The inhibition rate on cell proliferation was calculated by a formula: IR (%)=(RLU of control−RLU of compound)/(RLU of control−RLU of blank)×100%. The gradient concentrations of the compound and the corresponding inhibition rates were fitted by using XLFit four-parameter method, and the IC50 value was calculated. […] The results of some exemplary compounds are shown in Table 2 below (—means not tested).

[2] = test system: AGS human gastric cancer cell line with KRAS G12D mutation; test: Cell proliferation inhibition experiment, 3D CellTiter-Glo, AGS; format: cell-based; conditions: AGS cells, 3D spheroid, 5 days
Text: as §1, §2

AGS p-ERK = test: Cell assay for p-ERK (HTRF, Advance ERK phospho-T202/Y204 kit); format: cell-based, human; conditions: AGS cells (KRAS G12D), 3 hrs with compound, inhibition of p-ERK level
Experimental: AGS was purchased from ATCC, Article No.: CRL-1739; F12K was purchased from Gibco, Article No.: 21127-022; FBS was purchased from Gibco, Article No.: 10099-141C; the trypsin (containing EDTA) was purchased from Gibco, Article No.: 25200-072; DMSO was purchased from VWRAMRESCO, Article No.: 0231-500ML; the 96-well cell culture plate was purchased from Corning, Article No.: 3599; the white-bottom opaque 96-well plate was purchased from Cisbio, Article No.: 66PL96025; Advance ERK phospho-T202/Y204 kit was purchased from Cisbio, Article No.: 64AERPEH; the cell counter was purchased from CHEMOMETEC, model: NC-200; the microplate reader was purchased from PerkinElmer, model: Envison.
AGS, an endogenous human gastric adenocarcinoma cell line with KRAS^G12D mutation, was cultured in F12K+10% FBS medium. On the first day of the experiment, cells in logarithmic growth period were digested with trypsin (containing EDTA), collected and counted, and about 20,000 cells/well were inoculated in a 96-well cell culture plate and cultured overnight in an incubator with 5% CO2. 1000× compound stock solutions with gradient concentrations of 3.16 times were prepared with DMSO, and 200-fold diluted to 5× compound stock solutions with the above culture medium. The 5× compound stock solution was added to each cell culture well on the second day after cell inoculation, to give a final concentration of 1× and DMSO content of 0.1%. DMSO was used as experimental control. After adding the compound, the cells were continuously cultured for 3 hrs. Then, the culture medium in the well was removed, and 50 μl/well of cell lysis buffer (from Advanced ERK phospho-T202/Y204 kit, the same hereinafter) was added, and mixed uniformly. The cells were cultured for 30 min. Then 16 μl of the mixture was transferred to a white-bottom opaque 96-well plate, and 16 μl of the cell lysis buffer was added to an additional well and used as a blank. After that, 4 μl of p-ERK HTRF antibody mixed solution (from Advanced ERK Phos Pho-T202/Y204 Kit) was added to each well. After incubation for 4 hrs, the fluorescence value (RLU) of HTRF was read on a microplate reader. The inhibition rate of the compound on p-ERK level was calculated by the formula IR (%)=(RLU of control−RLU of compound)/(RLU of control−RLU of blank)×100%. The compound concentration and the corresponding inhibition rate on p-ERK level in the cells were fitted by using Prism 8 four-parameter method, and the IC50 value was calculated.

| Compound | IC50 ([1]; Homo sapiens, ASPC1, 120 h) | IC50 ([2]; Homo sapiens, 120 h) | IC50 (AGS p-ERK; Homo sapiens) | IC50 [1] | IC50 [2] | IC50 (AGS p-ERK) |
| --- | --- | --- | --- | --- | --- | --- |
| C#Cc1cccc2cc(N)cc(-c3nc4c5c(nc(OC[C@]67CCCN6CCC7=C(F)F)nc5c3F)N3C[C@H]5CC[C@H](N5)[C@H]3[C@H](C)O4)c12 [Z959, 4-((5S,5aS,6S,9R)-12-(((R)-1-(difluoromethylene)tetrahydro-1H-pyrrolizin-7a(5H)-yl)methoxy)-1-fluoro-5-methyl-5a,6,7,8,9,10-hexahydro-5H-4-oxa-3,10a,11,13,14-pentaaza-6,9-methanonaphtho[1,8-ab]hepten-2-yl)-5-ethynylnaphthalen-2-amine] | 7210 pM | 7270 pM | 1590 pM | – | – | – |
| C=C1CCN2CCC[C@]12COc1nc2c3c(nc(-c4cc(N)cc(Cl)c4C(F)(F)F)c(F)c3n1)O[C@@H](C)[C@@H]1[C@@H]3CC[C@H](CN21)N3 [Z963, 3-chloro-5-((5S,5aS,6S,9R)-1-fluoro-5-methyl-12-(((R)-1-methylenetetrahydro-1H-pyrrolizin-7a(5H)-yl)methoxy)-5a,6,7,8,9,10-hexahydro-5H-4-oxa-3,10a,11,13,14-pentaaza-6,9-methanonaphtho[1,8-ab]heptadien-2-yl)-4-(trifluoromethyl) aniline] | – | – | – | 1690 pM | 210 pM | 390 pM |
| [2H]C([2H])([2H])[C@@H]1Oc2nc(-c3cc(N)cc4cccc(C#C)c34)c(F)c3nc(OCC4(CN5CC[C@@H](F)C5)CC4)nc(c23)N2C[C@H]3CC[C@H](N3)[C@@H]12 [Z964, 5-ethynyl-4-((5S,5aS,6S,9R)-1-fluoro-12-((1-(((R)-3-fluoropyrrolidin-1-yl)methyl)cyclopropyl)methoxy)-5-(methyl-d3)-5a,6,7,8,9,10-hexahydro-5H-4-oxa-3,10a,11,13,14-pentaaza-6,9-methanonaphtho[1,8-ab]hepten-2-yl)naphthalen-2-amine] | 1580 pM | 510 pM | 380 pM | – | – | – |
| [2H]C([2H])([2H])[C@@H]1Oc2nc(-c3cc(N)cc4cccc(C#C)c34)c(F)c3nc(OC[C@@]45CCCN4CC(=C(F)F)C5)nc(c23)N2C[C@H]3CC[C@H](N3)[C@@H]12 [Z1044, 4-((5S,5aS,6S,9R)-12-(((S)-2-(difluoromethylene)tetrahydro-1H-pyrrolizin-7a(5H)-yl)methoxy)-1-fluoro-5-(methyl-d3)-5a,6,7,8,9,10-hexahydro-5H-4-oxa-3,10a,11,13,14-pentaaza-6,9-methanonaphtho[1,8-ab]hepten-2-yl)-5-ethynylnaphthalen-2-amine] | 920 pM | 530 pM | 340 pM | – | – | – |
| [2H]C([2H])([2H])[C@@H]1Oc2nc(-c3cc(N)cc(Cl)c3C(F)(F)F)c(F)c3nc(OC[C@]45CCCN4CCC5=C)nc(c23)N2C[C@H]3CC[C@H](N3)[C@@H]12 [Z1060, 3-chloro-5-((5S,5aS,6S,9R)-1-fluoro-5-(methyl-d3)-12-(((R)-1-methylenetetrahydro-1H-pyrrolizin-7a(5H)-yl)methoxy)-5a,6,7,8,9,10-hexahydro-5H-4-oxo-3,10a,11,13,14-pentaaza-6,9-methanonaphtho[1,8-ab]hepten-2-yl)-4-(trifluoromethyl) aniline] | 1630 pM | 190 pM | 720 pM | – | – | – |
| C[C@@H]1Oc2nc(-c3cc(N)cc(Cl)c3C(F)(F)F)cc3nc(OC[C@@]45CCCN4CC(=C(F)F)C5)nc(c23)N2C[C@H]3CC[C@H](N3)[C@@H]12 [Z1085, 3-chloro-5-((5S,5aS,6S,9R)-12-(((S)-2-(difluoromethylene)tetrahydro-1H-pyrrolizin-7a(5H)-yl)methoxy)-5-methyl-5a,6,7,8,9,10-hexahydro-5H-4-oxa-3,10a,11,13,14-pentaaza-6,9-methanonaphtho[1,8-ab]hepten-2-yl)-4-(trifluoromethyl) aniline] | 3040 pM | 880 pM | 780 pM | – | – | – |
| (5S,5aS,6S,9R)-12-((2,6-dimethyltetrahydro-1H-pyrrolizin-7a(5H)-methoxy)-2-(8-ethynyl-6-fluoronaphthalen-1-yl)-1-fluoro-5-methyl-5a,6,7,8,9,10-hexahydro-5H-4-oxa-3,10a,11,13,14-pentaaza-6,9-methanonaphtho[1,8-ab]heptene [Z551] | – | – | – | 170000 pM | 45400 pM | 61000 pM |

From patent publication US20260109714A1, “PYRIMIDINE-FUSED RING COMPOUND, AND PREPARATION METHOD THEREFOR AND USE THEREOF” (GENFLEET THERAPEUTICS (SHANGHAI) INC., priority 2022, published 2026)
